# Laboratory results as given in paper PMC3465515 (Nuclear medicine and biology, 2012).
# Read-outs that look alike come from different tables or passages of the source.
# How the values were obtained:
# [1] = biodistribution of [18F]6 in immature female Sprague-Dawley rats; assay type: in vivo; settings: 1 h
# [2] = assay type: in vivo, Sprague-Dawley rats; settings: 1 h, Letrozole + PMSG treated
# [3] = preliminary tissue distribution of [18F]6 in female C57BL/6 mice; assay type: in vivo; settings: data not shown
structure (smiles),measurement,setting,value
"C[C@]12CC[C@@H]3c4ccc(O)cc4CC[C@@]3(CC[18F])[C@@H]1CC[C@@H]2O [[^18F]6, 8β-(2-[^18F]fluoroethyl)estradiol]","percentage injected dose/gram, blood",[1]; DPN blocked (200 μg),0.22 ± 0.03 %ID/g
same,"percentage injected dose/gram, blood",[1]; E2 blocked (estradiol 20 μg),0.25 ± 0.07 %ID/g
same,"percentage injected dose/gram, blood",[1]; PPT blocked (200 μg),0.24 ± 0.06 %ID/g
same,"percentage injected dose/gram, blood",[1]; 13 μCi iv,0.22 ± 0.05 %ID/g
same,"percentage injected dose/gram, bone",[1]; DPN blocked (200 μg),0.40 ± 0.04 %ID/g
same,"percentage injected dose/gram, bone",[1]; E2 blocked (estradiol 20 μg),0.37 ± 0.04 %ID/g
same,"percentage injected dose/gram, bone",[1]; PPT blocked (200 μg),0.43 ± 0.12 %ID/g
same,"percentage injected dose/gram, bone",[1]; 13 μCi iv,0.36 ± 0.04 %ID/g
same,"percentage injected dose/gram, fat",[1]; DPN blocked (200 μg),0.58 ± 0.08 %ID/g
same,"percentage injected dose/gram, fat",[1]; E2 blocked (estradiol 20 μg),0.58 ± 0.10 %ID/g
same,"percentage injected dose/gram, fat",[1]; PPT blocked (200 μg),0.68 ± 0.19 %ID/g
same,"percentage injected dose/gram, fat",[1]; 13 μCi iv,0.55 ± 0.09 %ID/g
same,"percentage injected dose/gram, heart",[1]; DPN blocked (200 μg),0.18 ± 0.03 %ID/g
same,"percentage injected dose/gram, heart",[1]; E2 blocked (estradiol 20 μg),0.21 ± 0.04 %ID/g
same,"percentage injected dose/gram, heart",[1]; PPT blocked (200 μg),0.19 ± 0.04 %ID/g
same,"percentage injected dose/gram, heart",[1]; 13 μCi iv,0.18 ± 0.04 %ID/g
same,"percentage injected dose/gram, kidney",[1]; DPN blocked (200 μg),0.70 ± 0.10 %ID/g
same,"percentage injected dose/gram, kidney",[1]; E2 blocked (estradiol 20 μg),0.78 ± 0.15 %ID/g
same,"percentage injected dose/gram, kidney",[1]; PPT blocked (200 μg),0.78 ± 0.19 %ID/g
same,"percentage injected dose/gram, kidney",[1]; 13 μCi iv,0.64 ± 0.14 %ID/g
same,"percentage injected dose/gram, liver",[1]; DPN blocked (200 μg),1.50 ± 0.20 %ID/g
same,"percentage injected dose/gram, liver",[1]; E2 blocked (estradiol 20 μg),1.63 ± 0.26 %ID/g
same,"percentage injected dose/gram, liver",[1]; PPT blocked (200 μg),1.54 ± 0.39 %ID/g
same,"percentage injected dose/gram, liver",[1]; 13 μCi iv,1.52 ± 0.23 %ID/g
same,"percentage injected dose/gram, lung",[1]; DPN blocked (200 μg),0.33 ± 0.05 %ID/g
same,"percentage injected dose/gram, lung",[1]; E2 blocked (estradiol 20 μg),0.39 ± 0.06 %ID/g
same,"percentage injected dose/gram, lung",[1]; PPT blocked (200 μg),0.45 ± 0.12 %ID/g
same,"percentage injected dose/gram, lung",[1]; 13 μCi iv,0.39 ± 0.09 %ID/g
same,"percentage injected dose/gram, muscle",[1]; DPN blocked (200 μg),0.15 ± 0.01 %ID/g
same,"percentage injected dose/gram, muscle",[1]; E2 blocked (estradiol 20 μg),0.19 ± 0.05 %ID/g
same,"percentage injected dose/gram, muscle",[1]; PPT blocked (200 μg),0.19 ± 0.05 %ID/g
same,"percentage injected dose/gram, muscle",[1]; 13 μCi iv,0.15 ± 0.03 %ID/g
same,"percentage injected dose/gram, ovaries",[1]; DPN blocked (200 μg),0.33 ± 0.04 %ID/g
same,"percentage injected dose/gram, ovaries",[1]; E2 blocked (estradiol 20 μg),0.44 ± 0.15 %ID/g
same,"percentage injected dose/gram, ovaries",[1]; PPT blocked (200 μg),0.37 ± 0.13 %ID/g
same,"percentage injected dose/gram, ovaries",[1]; 13 μCi iv,0.30 ± 0.11 %ID/g
same,"blocking of ovary uptake by estradiol, DPN or PPT (in words)",[1]; ovary,nor was it substantially blocked by any of the three agents
same,"percentage injected dose/gram, spleen",[1]; DPN blocked (200 μg),0.15 ± 0.02 %ID/g
same,"percentage injected dose/gram, spleen",[1]; E2 blocked (estradiol 20 μg),0.16 ± 0.03 %ID/g
same,"percentage injected dose/gram, spleen",[1]; PPT blocked (200 μg),0.16 ± 0.05 %ID/g
same,"percentage injected dose/gram, spleen",[1]; 13 μCi iv,0.15 ± 0.03 %ID/g
same,"percentage injected dose/gram, thymus",[1]; DPN blocked (200 μg),0.12 ± 0.02 %ID/g
same,"percentage injected dose/gram, thymus",[1]; E2 blocked (estradiol 20 μg),0.13 ± 0.03 %ID/g
same,"percentage injected dose/gram, thymus",[1]; PPT blocked (200 μg),0.12 ± 0.02 %ID/g
same,"percentage injected dose/gram, thymus",[1]; 13 μCi iv,0.12 ± 0.03 %ID/g
same,"percentage injected dose/gram, uterus",[1]; DPN blocked (200 μg),0.23 ± 0.05 %ID/g
same,"percentage injected dose/gram, uterus",[1]; E2 blocked (estradiol 20 μg),0.38 ± 0.25 %ID/g
same,"percentage injected dose/gram, uterus",[1]; PPT blocked (200 μg),0.35 ± 0.15 %ID/g
same,"percentage injected dose/gram, uterus",[1]; 13 μCi iv,0.33 ± 0.14 %ID/g
same,"percentage injected dose/gram, blood",[2]; DPN blocked (200 μg),0.17 ± 0.03 %ID/g
same,"percentage injected dose/gram, blood",[2]; E2 blocked (estradiol 20 μg),0.19 ± 0.02 %ID/g
same,"percentage injected dose/gram, blood",[2]; PPT blocked (200 μg),0.16 ± 0.03 %ID/g
same,"percentage injected dose/gram, blood",[2]; 18 μCi iv,0.23 ± 0.07 %ID/g
same,"percentage injected dose/gram, bone",[2]; DPN blocked (200 μg),0.37 ± 0.07 %ID/g
same,"percentage injected dose/gram, bone",[2]; E2 blocked (estradiol 20 μg),0.33 ± 0.02 %ID/g
same,"percentage injected dose/gram, bone",[2]; PPT blocked (200 μg),0.34 ± 0.05 %ID/g
same,"percentage injected dose/gram, bone",[2]; 18 μCi iv,0.40 ± 0.10 %ID/g
same,"percentage injected dose/gram, fat",[2]; DPN blocked (200 μg),0.53 ± 0.18 %ID/g
same,"percentage injected dose/gram, fat",[2]; E2 blocked (estradiol 20 μg),0.50 ± 0.11 %ID/g
same,"percentage injected dose/gram, fat",[2]; PPT blocked (200 μg),0.53 ± 0.16 %ID/g
same,"percentage injected dose/gram, fat",[2]; 18 μCi iv,0.49 ± 0.12 %ID/g
same,"percentage injected dose/gram, heart",[2]; DPN blocked (200 μg),0.15 ± 0.02 %ID/g
same,"percentage injected dose/gram, heart",[2]; E2 blocked (estradiol 20 μg),0.14 ± 0.01 %ID/g
same,"percentage injected dose/gram, heart",[2]; PPT blocked (200 μg),0.14 ± 0.02 %ID/g
same,"percentage injected dose/gram, heart",[2]; 18 μCi iv,0.17 ± 0.03 %ID/g
same,"percentage injected dose/gram, kidney",[2]; DPN blocked (200 μg),0.59 ± 0.11 %ID/g
same,"percentage injected dose/gram, kidney",[2]; E2 blocked (estradiol 20 μg),0.55 ± 0.08 %ID/g
same,"percentage injected dose/gram, kidney",[2]; PPT blocked (200 μg),0.51 ± 0.09 %ID/g
same,"percentage injected dose/gram, kidney",[2]; 18 μCi iv,0.66 ± 0.12 %ID/g
same,"percentage injected dose/gram, liver",[2]; DPN blocked (200 μg),1.41 ± 0.22 %ID/g
same,"percentage injected dose/gram, liver",[2]; E2 blocked (estradiol 20 μg),1.51 ± 0.13 %ID/g
same,"percentage injected dose/gram, liver",[2]; PPT blocked (200 μg),1.40 ± 0.12 %ID/g
same,"percentage injected dose/gram, liver",[2]; 18 μCi iv,1.67 ± 0.31 %ID/g
same,"percentage injected dose/gram, lung",[2]; DPN blocked (200 μg),0.36 ± 0.05 %ID/g
same,"percentage injected dose/gram, lung",[2]; E2 blocked (estradiol 20 μg),0.38 ± 0.04 %ID/g
same,"percentage injected dose/gram, lung",[2]; PPT blocked (200 μg),0.36 ± 0.06 %ID/g
same,"percentage injected dose/gram, lung",[2]; 18 μCi iv,0.41 ± 0.02 %ID/g
same,"percentage injected dose/gram, muscle",[2]; DPN blocked (200 μg),0.13 ± 0.02 %ID/g
same,"percentage injected dose/gram, muscle",[2]; E2 blocked (estradiol 20 μg),0.12 ± 0.01 %ID/g
same,"percentage injected dose/gram, muscle",[2]; PPT blocked (200 μg),0.12 ± 0.02 %ID/g
same,"percentage injected dose/gram, muscle",[2]; 18 μCi iv,0.14 ± 0.03 %ID/g
same,"percentage injected dose/gram, ovaries",[2]; DPN blocked (200 μg),0.32 ± 0.10 %ID/g
same,"percentage injected dose/gram, ovaries",[2]; E2 blocked (estradiol 20 μg),0.30 ± 0.06 %ID/g
same,"percentage injected dose/gram, ovaries",[2]; PPT blocked (200 μg),0.30 ± 0.05 %ID/g
same,"percentage injected dose/gram, ovaries",[2]; 18 μCi iv,0.34 ± 0.04 %ID/g
same,"percentage injected dose/gram, spleen",[2]; DPN blocked (200 μg),0.12 ± 0.01 %ID/g
same,"percentage injected dose/gram, spleen",[2]; E2 blocked (estradiol 20 μg),0.12 ± 0.07 %ID/g
same,"percentage injected dose/gram, spleen",[2]; PPT blocked (200 μg),0.12 ± 0.02 %ID/g
same,"percentage injected dose/gram, spleen",[2]; 18 μCi iv,0.13 ± 0.16 %ID/g
same,"percentage injected dose/gram, thymus",[2]; DPN blocked (200 μg),0.09 ± 0.02 %ID/g
same,"percentage injected dose/gram, thymus",[2]; E2 blocked (estradiol 20 μg),0.10 ± 0.01 %ID/g
same,"percentage injected dose/gram, thymus",[2]; PPT blocked (200 μg),0.08 ± 0.01 %ID/g
same,"percentage injected dose/gram, thymus",[2]; 18 μCi iv,0.10 ± 0.01 %ID/g
same,"percentage injected dose/gram, uterus",[2]; DPN blocked (200 μg),0.22 ± 0.03 %ID/g
same,"percentage injected dose/gram, uterus",[2]; E2 blocked (estradiol 20 μg),0.20 ± 0.04 %ID/g
same,"percentage injected dose/gram, uterus",[2]; PPT blocked (200 μg),0.19 ± 0.02 %ID/g
same,"percentage injected dose/gram, uterus",[2]; 18 μCi iv,0.26 ± 0.07 %ID/g
same,tissue distribution (in words),[3],elevated lung uptake
